From US20090246248A1, “COATING COMPOSITIONS HAVING IMPROVED PERFORMANCE” (priority 2008, published 2009)
Square brackets hold non-standard residues; d marks the D form. Ends that are not written are not given here. Aun = NCCCCCCCCCCC(=O)O

Experiments:
[1] = Binding assay for glycopeptide antibiotic (biotinylated vancomycin, immobilized peptide); conditions: peptide immobilized on streptavidin plate
Protocol: A typical binding assay for glycopeptide antibiotic was performed according to the following procedure. Briefly, synthetic peptides comprising an amino acid sequence to be characterized for binding were biotinylated to facilitate immobilization on streptavidin-coated 96-well plates. The microtiter plates were coated with streptavidin by adding 50 μl of a 10 μg/ml streptavidin solution in 0.1 M NaHCO3, and incubating the plates for at least 3 hours. The plate wells were blocked by adding 150 μl of a 1% BSA solution in 0.1 NaHCO3 with incubation for at least 2 hours, and the plates were stored at 4° C. until needed. Before use, the streptavidin plates were washed extensively in buffer-T. Added per well was peptide (100 μl 0.1 μM peptide in buffer-T), and then incubated for 30 minutes at room temperature with shaking. 200 μl of 0.5 mM biotin in buffer-T was added to block the remaining streptavidin sites, and plates were incubated for 15 minutes at room temperature. Plates were then washed with buffer-T to remove the excess biotin and peptide. Serial dilutions of biotinylated glycopeptide antibiotic in buffer-T were added (100 μl) to each well, representing a range of concentrations between 100 μM and […]. Plates were incubated for 30 minutes at room temperature with shaking prior to washing several times with buffer-T. Glycopeptide antibiotic was then detected by adding 100 μl of a diluted streptavidin-alkaline phosphatase conjugate to each well and incubated at room temperature for 30 minutes. Excess conjugate was removed by repeated washes with buffer-T, and the amount of alkaline phosphatase remaining in the well was detected using a pNPP (para-nitrophenylphosphate) colorimetric enzymatic assay. The relative amount of glycopeptide antibiotic captured by the peptides was determined by measuring the absorbance at 405 nm of the colored product of the alkaline phosphatase reaction. The EC50 was determined for each peptide relative to the binding affinity for the glycopeptide antibiotic used in the assay, as shown in Table 8 (with vancomycin as a representative glycopeptide antibiotic).

[2] = Critical micelle concentration (methyl orange assay); type: physicochemical; conditions: pH 7 PBS, A484
Protocol: Formation of a composition of the invention, and evidence of macromolecular network formation, may be monitored or quantified by any means known in the art. In this example, macromolecular formation was detected using a standard assay for determining critical micelle concentration (“CMC”). In this assay, a solution containing the composition of the invention (in a range of concentrations in pH 7 phosphate buffered saline (“PBS”)) was mixed with a solution of methyl orange (0.04 mM in PBS), and the absorbance of the mixture was measured at 484 nm (A484). CMC is the concentration at which a sharp decrease in absorbance at A484 is observed, a change in the optical properties of methyl orange when trapped in a hydrophobic phase, such as caused by self-association as a macromolecular network (Table 7, “CMC”). Also included in this assay were an assay control peptide having an amino acid sequence of SEQ ID NO:122 (Table 7, “Control”), and compound 119 (a PEGylated peptide, the peptide having an amino acid sequence of SEQ ID NO:122, as described in more detail in Example 6 herein).

[3] = Stent flow model, retention of radiolabelled composition on coated stent; type: binding; conditions: 5 ml/min, 37° C.
Protocol: In this example, an in vitro model for in vivo stability on a medical device comprising a stent was performed. The stent flow model included a “circulatory system” comprising a peristaltic pump and clear silicone tubing into which is placed a stent (8 mm, stainless steel) coated with a composition according to the invention. Coating of the stents was accomplished by incubating the stents with radiolabelled composition 132 (specific activity 2,400 cpm/pmole at 20 μM in PBS) for 1 hour at 20° C., followed by extensive washing with buffer. […] In another variation of the stent flow model, 10% BSA+10 mM guanidinium chloride was circulated through the circulatory system at a flow rate of 5 ml/min for 18 hours at 37° C. After circulation in the respective variations of the stent flow model, the coated stents were then counted for radioactivity. To serve as an assay “control”, some coated stents were not placed in the stent flow model, but rather counted for radioactive counts to provide a reference from which percent retention could be calculated for those coated stents included in the stent flow model.

Substance: Ac-Y-AUD-AUD-AUD-AUD-AUD-AUD-SEQ ID NO: 122 (Ac-Y[Aun][Aun][Aun][Aun][Aun][Aun]SSHRTNHKKNNPKKKNKTRGSSGK) [Compound 132]
- EC50 [1]: 60 nM
- CMC [2]: 0.123 µM
- composition remained bound to the coated stents ([3]; 10% BSA+10 mM guanidinium chloride, 18 hours): over 90%
- composition remained bound to the coated stents ([3]; human plasma, 7 days): over 90%
